Experimental data reported in PubChem BioAssay AID256 (DTP/NCI, 2004).
“And” between values parts separate entries of the source, which are not always exact repeats. Equal values may be shown once. Toxic doses and inconclusive results are not listed.

Tested on: CD2F1 mice, L1210 leukemia ip, survival T/C
Assay: NCI In Vivo Anticancer Drug Screen. Data for tumor model L1210 Leukemia (intraperitoneal) in CD2F1 (CDF1) mice
Details: higher = longer survival
Procedure, shortened: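 Read-out first: treated-group measurement over vehicle-control measurement, expressed as a ratio. Animals bore a transplanted tumor line and were dosed with compound or vehicle.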

[1] = endpoint: mean survival time, dose: 100.0 mg/kg/injection, schedule: Q01DX001 (ip), vehicle: saline
[2] = endpoint: mean survival time, dose: 200.0 mg/kg/injection, schedule: Q01DX001 (ip), vehicle: saline
[3] = endpoint: mean survival time, dose: 400.0 mg/kg/injection, schedule: Q01DX001 (ip), vehicle: saline
[4] = endpoint: mean survival time, dose: 100.0 mg/kg/injection, schedule: Q04DX002 (ip), vehicle: saline with Tween-80
[5] = endpoint: mean survival time, dose: 200.0 mg/kg/injection, schedule: Q04DX002 (ip), vehicle: saline with Tween-80
[6] = endpoint: mean survival time, dose: 400.0 mg/kg/injection, schedule: Q04DX002 (ip), vehicle: saline with Tween-80
[7] = endpoint: mean survival time, dose: 100.0 mg/kg/injection, schedule: Q04DX003 (ip), vehicle: saline with Tween-80
[8] = endpoint: mean survival time, dose: 200.0 mg/kg/injection, schedule: Q04DX003 (ip), vehicle: saline with Tween-80
[9] = endpoint: mean survival time, dose: 100.0 mg/kg/injection, schedule: Q01DX009 (ip), vehicle: saline with Tween-80
[10] = endpoint: mean survival time, dose: 200.0 mg/kg/injection, schedule: Q01DX009 (ip), vehicle: saline with Tween-80
[11] = endpoint: mean survival time, dose: 400.0 mg/kg/injection, schedule: Q04DX003 (ip), vehicle: saline with Tween-80
[12] = endpoint: mean survival time, dose: 3.12 mg/kg/injection, schedule: Q01DX009 (ip), vehicle: saline with Tween-80
[13] = endpoint: mean survival time, dose: 6.25 mg/kg/injection, schedule: Q01DX009 (ip), vehicle: saline with Tween-80
[14] = endpoint: mean survival time, dose: 25.0 mg/kg/injection, schedule: Q01DX009 (ip), vehicle: saline with Tween-80
[15] = endpoint: mean survival time, dose: 50.0 mg/kg/injection, schedule: Q01DX009 (ip), vehicle: saline with Tween-80

C/C(=N/O)c1ccc2c(c1)C(C)c1ccccc1-2 (stereo not drawn)
T/C [1]: 112 % of control | T/C [2]: 110 % of control | T/C [3]: 104 % of control

O=c1c([N+](=O)[O-])c[nH]c2ccccc12
T/C [4]: 95 % of control | T/C [5]: 95 % of control | T/C [6]: 103 % of control

CCC1(O)C(=O)OCc2c1cc1n(c2=O)Cc2cc3cc(O)c(O)cc3nc2-1 (stereo not drawn)
T/C (endpoint: median survival time, dose: 10.0 mg/kg/injection, schedule: Q04DX002 (ip), vehicle: saline with Tween-80): 153 % of control | T/C (endpoint: median survival time, dose: 40.0 mg/kg/injection, schedule: Q04DX002 (ip), vehicle: saline with Tween-80): 157 % of control | T/C (endpoint: median survival time, dose: 80.0 mg/kg/injection, schedule: Q04DX002 (ip), vehicle: saline with Tween-80): 173 % of control

CN(C)c1ccc(/C=C/c2ccnc3ccccc23)cc1
T/C (endpoint: mean survival time, dose: 12.5 mg/kg/injection, schedule: Q01DX Z (ip), vehicle: saline): 103 % of control | T/C (endpoint: mean survival time, dose: 16.0 mg/kg/injection, schedule: Q01DX008 (iv), vehicle: saline): 100 % of control | T/C (endpoint: mean survival time, dose: 25.0 mg/kg/injection, schedule: Q01DX Z (ip), vehicle: saline): 103 % of control | T/C (endpoint: mean survival time, dose: 32.0 mg/kg/injection, schedule: Q01DX008 (iv), vehicle: saline): 100 % of control | T/C (endpoint: mean survival time, dose: 50.0 mg/kg/injection, schedule: Q01DX Z (ip), vehicle: saline): 103 % of control | T/C (endpoint: mean survival time, dose: 64.0 mg/kg/injection, schedule: Q01DX008 (iv), vehicle: saline): 102 % of control

CCc1c2c(nc3ccc(OC(=O)N4CCC(N5CCCCC5)CC4)cc13)-c1cc3c(c(=O)n1C2)COC(=O)[C@]3(O)CC
T/C (endpoint: median survival time, dose: 26.4 mg/kg/injection, schedule: Q04HX004 (iv), vehicle: water): 177 % of control | T/C (endpoint: median survival time, dose: 39.6 mg/kg/injection, schedule: Q04DX002 (ip), vehicle: water): 206 % of control | T/C (endpoint: median survival time, dose: 39.6 mg/kg/injection, schedule: Q04HX004 (iv), vehicle: water): 192 % of control | T/C (endpoint: median survival time, dose: 59.3 mg/kg/injection, schedule: Q04DX002 (ip), vehicle: water): 231 % of control | T/C (endpoint: median survival time, dose: 59.3 mg/kg/injection, schedule: Q04HX004 (iv), vehicle: water): 193 % of control | T/C (endpoint: median survival time, dose: 89.0 mg/kg/injection, schedule: Q04DX002 (ip), vehicle: water): 500 % of control | T/C (endpoint: median survival time, dose: 89.0 mg/kg/injection, schedule: Q04HX004 (iv), vehicle: water): 209 % of control

COc1ccc(C(=O)C/C(=N\N(C(=O)c2ccc(OC)cc2)c2ccccc2)c2ccc(OC)cc2)cc1
T/C [7]: 95 % of control | T/C [8]: 97 % of control

O=C(OCC1OCOC(COC(=O)c2ccccc2)C(OC(=O)c2ccccc2)C1OC(=O)c1ccccc1)c1ccccc1 (stereo not drawn)
T/C [4]: 100 % of control | T/C [5]: 88 % of control | T/C [6]: 88 % of control

C=CC(=O)CCCC(=O)O
T/C [9]: 100 % of control | T/C [10]: 102 % of control | T/C (endpoint: mean survival time, dose: 400.0 mg/kg/injection, schedule: Q01DX009 (ip), vehicle: saline with Tween-80): 104 % of control

COC(=O)C1CN1C1=C(C)C(=O)C2=C(C1=O)C(COC(N)=O)C1(OC)C3NC3CN21 (stereo not drawn)
T/C (endpoint: median survival time, dose: 1.5 mg/kg/injection, schedule: Q01DX001 (ip), vehicle: water): 104 % of control | T/C (endpoint: median survival time, dose: 3.0 mg/kg/injection, schedule: Q01DX001 (ip), vehicle: water): 103 % of control | T/C (endpoint: median survival time, dose: 6.0 mg/kg/injection, schedule: Q01DX001 (ip), vehicle: water): 123 % of control | T/C (endpoint: median survival time, dose: 12.0 mg/kg/injection, schedule: Q01DX001 (ip), vehicle: water): 123 % of control | T/C (endpoint: median survival time, dose: 24.0 mg/kg/injection, schedule: Q01DX001 (ip), vehicle: water): 121 % of control and 124 % of control

CCN(CC)C(=O)c1cc[n+](Cc2ccc(Cl)cc2)cc1
T/C (endpoint: mean survival time, dose: 100.0 mg/kg/injection, schedule: Q04DX003 (ip), vehicle: saline): 106 % of control | T/C (endpoint: mean survival time, dose: 200.0 mg/kg/injection, schedule: Q04DX003 (ip), vehicle: saline): 103 % of control

CCN(CC)CCSC(=O)C(O)(c1ccccc1)c1cccc(C)c1 (stereo not drawn)
T/C (endpoint: mean survival time, dose: 75.0 mg/kg/injection, schedule: Q01DX001 (ip), vehicle: saline): 105 % of control

CC1=NCCc2ccccc21
T/C (endpoint: mean survival time, dose: 12.5 mg/kg/injection, schedule: Q04DX003 (ip), vehicle: saline): 102 % of control | T/C (endpoint: mean survival time, dose: 25.0 mg/kg/injection, schedule: Q04DX003 (ip), vehicle: saline): 93 % of control

CCCCCOC(=O)COc1ccc(F)cc1F
T/C [4]: 101 % of control | T/C [5]: 105 % of control | T/C [6]: 90 % of control

Cc1cc(SCC(=O)c2ccc(Br)cc2)cc(C)[o+]1
T/C (endpoint: mean survival time, dose: 6.25 mg/kg/injection, schedule: Q01DX009 (ip), vehicle: saline): 96 % of control and 104 % of control | T/C (endpoint: mean survival time, dose: 12.5 mg/kg/injection, schedule: Q01DX009 (ip), vehicle: saline): 102 % of control and 108 % of control | T/C (endpoint: mean survival time, dose: 25.0 mg/kg/injection, schedule: Q01DX009 (ip), vehicle: saline): 96 % of control and 108 % of control | T/C (endpoint: mean survival time, dose: 50.0 mg/kg/injection, schedule: Q01DX009 (ip), vehicle: saline): 92 % of control and 96 % of control | T/C (endpoint: mean survival time, dose: 100.0 mg/kg/injection, schedule: Q01DX009 (ip), vehicle: saline): 102 % of control | T/C (endpoint: mean survival time, dose: 200.0 mg/kg/injection, schedule: Q01DX009 (ip), vehicle: saline): 86 % of control

Cc1ccc(C(=O)/C=C/c2ccc(N(C)C)cc2)cc1
T/C [7]: 87 % of control | T/C [8]: 87 % of control | T/C [11]: 89 % of control

C[N+](C)(C)CCCNC(=O)Nc1ccc(Cl)cc1
T/C (endpoint: mean survival time, dose: 6.25 mg/kg/injection, schedule: Q04DX002 (ip), vehicle: saline): 106 % of control | T/C (endpoint: mean survival time, dose: 25.0 mg/kg/injection, schedule: Q04DX002 (ip), vehicle: saline): 100 % of control

NC(C1SCCS1)C(O)C(O)C(O)CO (stereo not drawn)
T/C [7]: 101 % of control | T/C [8]: 104 % of control | T/C [11]: 98 % of control

Cc1nc(N)[nH]c(=O)c1CCS
T/C [1]: 97 % of control | T/C [2]: 100 % of control

COc1cc(OC)c(NC(=O)ON2C(=O)c3ccccc3C2=O)cc1Cl
T/C (endpoint: mean survival time, dose: 0.19 mg/kg/injection, schedule: Q01DX009 (ip), vehicle: saline with Tween-80): 97 % of control | T/C (endpoint: mean survival time, dose: 0.39 mg/kg/injection, schedule: Q01DX009 (ip), vehicle: saline with Tween-80): 94 % of control | T/C (endpoint: mean survival time, dose: 0.78 mg/kg/injection, schedule: Q01DX009 (ip), vehicle: saline with Tween-80): 100 % of control | T/C (endpoint: mean survival time, dose: 1.56 mg/kg/injection, schedule: Q01DX009 (ip), vehicle: saline with Tween-80): 97 % of control | T/C [12]: 116 % of control and 96 % of control | T/C [13]: 100 % of control | T/C (endpoint: mean survival time, dose: 12.5 mg/kg/injection, schedule: Q01DX009 (ip), vehicle: saline with Tween-80): 103 % of control | T/C [14]: 103 % of control | T/C [15]: 101 % of control | T/C [9]: 103 % of control

CN(C)C/C(=N\OC(=O)c1ccccc1)c1ccc(Cl)cc1
T/C [15]: 107 % of control | T/C (endpoint: mean survival time, dose: 100.0 mg/kg/injection, schedule: Q01DX001 (ip), vehicle: saline with Tween-80): 96 % of control | T/C [9]: 96 % of control | T/C (endpoint: mean survival time, dose: 200.0 mg/kg/injection, schedule: Q01DX001 (ip), vehicle: saline with Tween-80): 104 % of control | T/C [10]: 96 % of control | T/C (endpoint: mean survival time, dose: 400.0 mg/kg/injection, schedule: Q01DX001 (ip), vehicle: saline with Tween-80): 93 % of control

O=C(O)C(=O)Cc1ccc2c(c1)OCO2
T/C [1]: 98 % of control | T/C [2]: 104 % of control | T/C [3]: 98 % of control

Nc1nc(N)c2c(Cl)c(CNc3ccc(Cl)c(Cl)c3)ccc2n1
T/C [12]: 110 % of control | T/C (endpoint: mean survival time, dose: 3.13 mg/kg/injection, schedule: Q01DX009 (ip), vehicle: saline with Tween-80): 98 % of control | T/C [13]: 114 % of control and 115 % of control | T/C [14]: 153 % of control | T/C [15]: 156 % of control and 188 % of control | T/C [9]: 111 % of control | T/C (endpoint: median survival time, dose: 6.25 mg/kg/injection, schedule: Q01DX009 (ip), vehicle: saline with Tween-80): 102 % of control and 110 % of control | T/C (endpoint: median survival time, dose: 25.0 mg/kg/injection, schedule: Q01DX009 (ip), vehicle: saline with Tween-80): 150 % of control and 153 % of control | T/C (endpoint: median survival time, dose: 50.0 mg/kg/injection, schedule: Q01DX005 (ip), vehicle: saline with Tween-80): 159 % of control | T/C (endpoint: median survival time, dose: 50.0 mg/kg/injection, schedule: Q01DX009 (ip), vehicle: saline with Tween-80): 175 % of control and 198 % of control | T/C (endpoint: median survival time, dose: 83.33 mg/kg/injection, schedule: Q01DX005 (ip), vehicle: saline with Tween-80): 202 % of control | T/C (endpoint: median survival time, dose: 83.63 mg/kg/injection, schedule: Q01DX005 (ip), vehicle: saline with Tween-80): 230 % of control | T/C (endpoint: median survival time, dose: 138.89 mg/kg/injection, schedule: Q01DX005 (ip), vehicle: saline with Tween-80): 179 % of control | T/C (endpoint: median survival time, dose: 139.39 mg/kg/injection, schedule: Q01DX005 (ip), vehicle: saline with Tween-80): 151 % of control | T/C (endpoint: median survival time, dose: 232.31 mg/kg/injection, schedule: Q01DX005 (ip), vehicle: saline with Tween-80): 117 % of control
